The test system of this test is HTR5A counterscreen cells, luminescence, activation. Nature of the test: HTR5A agonist-like luminescent signal – cell-based, luminescence, dose response, set 2, counter-screen for OPRM1-OPRD1 heterodimer activator project, late-stage follow-up (AID 651765).

The structures appear in SMILES notation. Activity calls are given as the source filed them. The rule behind the calls is not given here.

Here are results for 28 molecules from PubChem BioAssay AID651765 (The Scripps Research Institute Molecular Screening Center, 2012).

On to `CCOC(=O)C1(CCc2ccccc2)CCN(C(=O)Nc2ccc(C)cc2C)CC1`, for which the EC50 is > 50 µM (inactive). In the case of `O=C(O)C1CCCCC1C(=O)Nc1ccc(CN2CCCCC2)cc1` (stereo not drawn) it was > 50 µM (inactive); in that of `CCOC(=O)C1(Cc2ccccc2)CCCN(Cc2ccc(NC(C)=O)cc2)C1` (stereo not drawn), > 50 µM (inactive); in that of `CCOC(=O)C1CCN(Cc2ccc(N(C)C)cc2)CC1`, > 50 µM (inactive). For the molecule `CC(=O)Nc1ccc(CN2CCCC(CO)(CCc3ccccc3)C2)cc1` (stereo not drawn), the EC50 was > 50 µM (inactive). As to `CCOC(=O)C1(CCOC)CCN(Cc2ccc(NC(C)=O)cc2)CC1`, the EC50 was > 50 µM (inactive). Consider `CCOC(=O)C1CCCCN1Cc1ccc(NC(C)=O)cc1` (stereo not drawn), for which the EC50 is > 50 µM (inactive). In the case of `CCOC(=O)C1CCN(Cc2ccc(NC(C)=O)cc2)CC1`, the EC50 was > 50 µM (inactive).

`CCOC(=O)C1(CCOc2ccccc2)CCCN(Cc2ccc(NC(C)=O)cc2)C1` (stereo not drawn): the EC50 is > 50 µM (inactive). For the molecule `CCOC(=O)C1(Cc2ccccc2C)CCCN(Cc2ccc(NC(C)=O)cc2)C1` (stereo not drawn), the EC50 is > 50 µM (inactive). For `CCOC(=O)C1(Cc2ccccc2Cl)CCN(Cc2ccc(NC(C)=O)cc2)CC1`, the EC50 was > 50 µM (inactive). Consider `CCOC(=O)C1(CCc2ccccc2)CCN(Cc2ccncc2)CC1`, for which the EC50 is > 50 µM (inactive). In the case of `CCOC(=O)C1(Cc2ccc(OC)cc2)CCN(C(=O)c2ccc(N(C)C)cc2)CC1` it was > 50 µM (inactive); in that of `CCOC(=O)C1(CCc2ccccc2)CCCN(Cc2ccc(N3CCNC3=O)cc2)C1` (stereo not drawn), > 50 µM (inactive). As for `CCOC(=O)C1(CCc2ccccc2)CCN(Cc2c(O)cccc2OC)CC1`, the EC50 is > 50 µM (inactive). In the case of `CCOC(=O)C1(CC2CC2)CCN(Cc2ccc(NC(C)=O)cc2)CC1`, the EC50 was > 50 µM (inactive). `CCOC(=O)C1(Cc2cccc(OC)c2)CCCN(Cc2ccc(NC(C)=O)cc2)C1` (stereo not drawn): the EC50 was > 50 µM (inactive). `CCOC(=O)C1(CC2CC2)CCN(C(=O)c2ccc(N3CCCCC3)cc2)CC1`: the EC50 is > 50 µM (inactive).

Consider `CCOC(=O)C1CCN(CCC(=O)Nc2ccc(C)cc2)CC1`, for which the EC50 is > 50 µM (inactive).

Regarding `CCOC(=O)C1(CCc2ccccc2)CCN(Cc2ccc(OC)cc2)CC1`, the EC50 is > 50 µM (inactive).

`CCOC(=O)C1(CCOC)CCCN(Cc2ccc(NC(C)=O)cc2)C1` (stereo not drawn): the EC50 was > 50 µM (inactive). Next, `CCOC(=O)C1(CCc2ccccc2)CCN(Cc2ccc(O)cc2)CC1`: > 50 µM (inactive); `CCOC(=O)C1CCN(C(=O)c2ccc(N(C)C)cc2)CC1`: > 50 µM (inactive); `CCOC(=O)C1(CCc2ccccc2)CCN(Cc2ccc(C#CC(C)(C)O)cc2)CC1`: > 50 µM (inactive). For the molecule `CCOC(=O)C1(CCc2ccccc2)CCN(Cc2ccc(C(=O)OC)cc2)CC1`, the EC50 is > 50 µM (inactive). As to `C=Cc1ccc(C(=O)N2CCC(CCc3ccccc3)(C(=O)OCC)CC2)cc1`, the EC50 was > 50 µM (inactive). In the case of `C=Cc1ccc(C(=O)N2CCC(CCCc3ccccc3)(C(=O)OCC)CC2)cc1`, the EC50 is > 50 µM (inactive). In the case of `CCOC(=O)C1(CCOC)CCN(Cc2ccc(N(C)c3ccccc3)cc2)CC1`, the EC50 was > 50 µM (inactive).

What is called EC50 is the concentration that produces a half-maximal response.
